Data published in ChEMBL document CHEMBL2407046, “Synthesis of 2α-heteroarylalkyl active vitamin d3 with therapeutic effect on enhancing bone mineral density in vivo” (ACS Med Chem Lett, 2013).
Blank lines part the entries; values can stand above or below the molecule they belong to.

Key:
Rattus norvegicus [1] = test: Toxicity in ovariectomized Sprague-Dawley rat osteoporosis model assessed as increase in serum Ca level at 0.1 mg/kg/day administered 5 times a week for 4 weeks measured 24 hrs post last dose (reference value: 9.14 +/- 0.24 mg/dL); type: organism-based; details: in vivo
Rattus norvegicus [2] = test: Toxicity in ovariectomized Sprague-Dawley rat osteoporosis model assessed as increase in serum Ca level at 0.025 mg/kg/day administered 5 times a week for 4 weeks measured 24 hrs post last dose (reference value: 9.14 +/- 0.24 mg/dL); type: organism-based; details: in vivo
Rattus norvegicus [3] = test: Antiosteoporotic activity in ovariectomized Sprague-Dawley rat osteoporosis model assessed as increase in bone mineral density in spine at 0.1 mg/kg/day administered 5 times a week for 4 weeks measured 24 hrs post last dose by dual X-ray absorption meter (reference value: 0.209 +/- 0.019 g/cm'2); type: functional
Rattus norvegicus [4] = test: Antiosteoporotic activity in ovariectomized Sprague-Dawley rat osteoporosis model assessed as increase in bone mineral density in spine at 0.025 mg/kg/day administered 5 times a week for 4 weeks measured 24 hrs post last dose by dual X-ray absorption meter (reference value: 0.209 +/- 0.019 g/cm'2); type: functional
Rattus norvegicus [5] = test: Toxicity in ovariectomized Sprague-Dawley rat osteoporosis model assessed as increase in serum Ca level at 0.02 mg/kg/day administered 5 times a week for 4 weeks measured 24 hrs post last dose (reference value: 9.25 +/- 0.11 mg/dL); type: organism-based; details: in vivo
Rattus norvegicus [6] = test: Toxicity in ovariectomized Sprague-Dawley rat osteoporosis model assessed as increase in serum Ca level at 0.007 mg/kg/day administered 5 times a week for 4 weeks measured 24 hrs post last dose (reference value: 9.25 +/- 0.11 mg/dL); type: organism-based; details: in vivo
Rattus norvegicus [7] = test: Antiosteoporotic activity in ovariectomized Sprague-Dawley rat osteoporosis model assessed as increase in bone mineral density in spine at 0.02 mg/kg/day administered 5 times a week for 4 weeks measured 24 hrs post last dose by dual X-ray absorption meter (reference value: 0.209 +/- 0.011 g/cm'2); type: functional
Rattus norvegicus [8] = test: Antiosteoporotic activity in ovariectomized Sprague-Dawley rat osteoporosis model assessed as increase in bone mineral density in spine at 0.007 mg/kg/day administered 5 times a week for 4 weeks measured 24 hrs post last dose by dual X-ray absorption meter (reference value: 0.209 +/- 0.011 g/cm'2); type: functional
Vitamin D3 receptor = target: T1, Vitamin D3 receptor (Homo sapiens, UniProt P11473); test: Transactivation of VDR-mediated osteocalcin promoter in human HOS/SF cells after 24 hrs by luciferase reporter gene assay; type: cell-based
T1 sequence (P11473 whole entry): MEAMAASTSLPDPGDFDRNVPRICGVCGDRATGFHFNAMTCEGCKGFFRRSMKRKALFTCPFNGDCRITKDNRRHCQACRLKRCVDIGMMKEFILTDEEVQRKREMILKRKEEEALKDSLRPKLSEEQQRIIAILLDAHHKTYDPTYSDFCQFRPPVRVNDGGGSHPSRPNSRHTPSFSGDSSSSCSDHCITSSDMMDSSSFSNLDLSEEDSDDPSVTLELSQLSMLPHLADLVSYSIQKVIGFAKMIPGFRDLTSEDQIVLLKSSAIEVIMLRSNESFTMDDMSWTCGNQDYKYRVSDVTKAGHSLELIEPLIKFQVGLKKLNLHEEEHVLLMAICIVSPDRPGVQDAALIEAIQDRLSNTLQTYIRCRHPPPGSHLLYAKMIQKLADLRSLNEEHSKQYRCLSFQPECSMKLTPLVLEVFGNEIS

SMILES: C=C1/C(=C\C=C2/CCC[C@]3(C)[C@@H]([C@H](C)CCCC(C)(C)O)CC[C@@H]23)C[C@@H](O)C[C@@H]1O [CALCITRIOL]
- Activity (Rattus norvegicus [1]): 10.35 mg/dL
- Activity (Rattus norvegicus [2]): 10.14 mg/dL
- Activity (Rattus norvegicus [3]): 0.228 g/cm2
- Activity (Rattus norvegicus [4]): 0.218 g/cm2

SMILES: C=C1/C(=C\C=C2/CCC[C@]3(C)[C@@H]([C@H](C)CCCC(C)(C)O)CC[C@@H]23)C[C@@H](O)[C@H](CCn2cnnn2)[C@@H]1O
- EC50 (Vitamin D3 receptor): 0.29 nM

SMILES: C=C1/C(=C\C=C2/CCC[C@]3(C)[C@@H]([C@H](C)CCCC(C)(C)O)CC[C@@H]23)C[C@@H](O)[C@H](CCn2ccnc2)[C@@H]1O
- EC50 (Vitamin D3 receptor): 0.68 nM

SMILES: C=C1/C(=C\C=C2/CCC[C@]3(C)[C@@H]([C@H](C)CCCC(C)(C)O)CC[C@@H]23)C[C@@H](O)[C@H](CCn2ccnn2)[C@@H]1O
- EC50 (Vitamin D3 receptor): 0.21 nM

Continued, in another order:

- EC50 (Vitamin D3 receptor): 0.01 nM
SMILES: C=C1/C(=C\C=C2/CCC[C@]3(C)[C@@H]([C@H](C)CCCC(C)(C)O)CC[C@@H]23)C[C@@H](O)[C@H](CCn2ncnn2)[C@@H]1O
- Activity (Rattus norvegicus [5]): 9.66 mg/dL
- Activity (Rattus norvegicus [6]): 9.41 mg/dL
- Activity (Rattus norvegicus [7]): 0.223 g/cm2
- Activity (Rattus norvegicus [8]): 0.214 g/cm2

- EC50 (Vitamin D3 receptor): 0.15 nM
SMILES: C=C1/C(=C\C=C2/CCC[C@]3(C)[C@@H]([C@H](C)CCCC(C)(C)O)CC[C@@H]23)C[C@@H](O)[C@H](CCn2cncn2)[C@@H]1O

- EC50 (Vitamin D3 receptor): 0.044 nM
SMILES: C=C1/C(=C\C=C2/CCC[C@]3(C)[C@@H]([C@H](C)CCCC(C)(C)O)CC[C@@H]23)C[C@@H](O)[C@H](CCn2nccn2)[C@@H]1O
